Experimental data published in patent US20250213545A1 (AJOU UNIVERSITY INDUSTRY-ACADEMIC COOPERATION FOUNDATION, priority 2022, published 2025).

Assays:
[1] = system: Parkinson's disease model (6-OHDA model) mice; assay: Bridge test (acrossing time on a 1 m bar); type: in vivo, C57BL/6 mice; conditions: 20 mg/kg orally once a day
Description: (§1) Specifically, 8-week-old C57BL/6 mice (Daehan Biolink, Eumseong, North Chungcheong Province, Korea) were anesthetized by intraperitoneal (i.p.) injection of 200 mg/kg of 2,2,2-tribromoethanol (Sigma-Aldrich), and they were placed in a stereotaxic apparatus (David Kopf Instruments, Tujunga, CA, USA) equipped With a mouse adapter. Using a Hamilton syringe (Hamilton, Bonaduz, Switzerland), 2 μL of 6-OHDA-HCl solution (2 mg/mL) (Sigma Aldrich) in 0.02% ascorbic acid was injected into the right striatum at the following stereotactic coordinates (mm from the bregma): IP+1.0; ML-1.8; DV −3.2. The skin was sutured, and the animal was removed from the stereotaxic apparatus and placed on a heating pad for 30 minutes. Normal control mice for the diseased mouse model were injected with a vehicle (0.02% ascorbic acid) instead of 6-OHDA-HCl solution.
(§2) Behavioral experiments were performed 18 days after 6-01-IDA injection, and mice were sacrificed 21 days after 6-01-IDA injection, and histological analysis was performed.
In order to test the animal model's sense of balance, a bridge test was performed to measure the time it took to pass from one side to the other side on a 1 m long bar (acrossing time).

[2] = system: Parkinson's disease model (6-OHDA model) mice; assay: Pole test (landing time); type: in vivo, C57BL/6 mice; conditions: 20 mg/kg orally once a day
Description: as §1, §2
The mouse was placed on a bar with a diameter of 8 mm and a length of 55 cm, and a pole test was performed to measure the time it took for the mouse's four feet to come down to the floor (landing time).

[3] = system: Parkinson's disease model (6-OHDA model) mice; assay: Cylinder test; type: in vivo, C57BL/6 mice; conditions: 6-OHDA+fexofenadine group; 20 mg/kg orally once a day
Description: as §1, §2

TH-positive neurons = conditions: 6-OHDA+fexofenadine group; 20 mg/kg orally once a day; 21 days after 6-OHDA injection
Description: as §1, §2

Iba-1 positive microglia = assay: Microglial (Iba-1) staining in substantia nigra and striatum, 6-OHDA model; type: in vivo, C57BL/6 mice; conditions: 6-OHDA+fexofenadine group; 20 mg/kg orally once a day; 21 days after 6-OHDA injection
Description: Specifically, 8-week-old C57BL/6 mice (Daehan Biolink, Eumseong, North Chungcheong Province, Korea) were anesthetized by intraperitoneal (i.p.) injection of 200 mg/kg of 2,2,2-tribromoethanol (Sigma-Aldrich), and they were placed in a stereotaxic apparatus (David Kopf Instruments, Tujunga, CA, USA) equipped With a mouse adapter.
Activated microglia were analyzed through staining with anti-Iba-1 antibody (Wako, 019-19741, 1:1,000 dilution). The brain tissue preparation and tissue staining method for this purpose were performed in the same manner as the TH staining method in Example 3-1, and the images were analyzed using an Axio scan. Z1 slide scanner (Carl Zeiss, Germany). The cell number was measured and analyzed as the average value of three sheets of each tissue.

GFAP = GFAP staining in cortex, striatum and substantia nigra, α-synuclein injection model; type: in vivo, C57BL/6 mice; conditions: PFF-fexofenadine group vs PFF-PBS; 20 mg/kg orally once a day; day 30
Description: The skin was sutured, and the animal was removed from the stereotaxic apparatus and placed on a heating pad for 30 minutes.

α-synuclein aggregates = assay: BiFC-α-syn Venus fluorescence in C. elegans Parkinson's disease model; type: in vivo; conditions: Venus-αS C. elegans; fexofenadine, 2 days at 20° C.; vs control not treated
Description: (§3) For this purpose, A C. elegans Parkinson's disease model (Venus-αS) expressing BiFC-α-syn was produced by introducing plasmids that overexpress VN-linked α-synuclein in muscle cells of the pharynx and VC-linked α-synuclein in neurons that form synapses with muscle cells into wild-type Bristol N2 C. elegans purchased from the Caenorhabditis Genetics Center (CGC, University of Minnesota, St. Paul, MN) (Kim D-K et al., (2016). Autophagy. 12(10):1849-1863).

[4] = system: BIFC-α-syn C. elegans Parkinson's disease model; assay: Pharyngeal pumping analysis; type: in vivo
Description: as §3

[5] = system: BIFC-α-syn C. elegans Parkinson's disease model; assay: Life-span analysis; type: in vivo
Description: as §3
For this purpose, eggs laid by adults were grown to the L4 larval stage on NGM plates inoculated with K col. OP50 (CGC) at 20° C. When the L4 stage was reached, they were transferred to NGM plates including […] 5-fluoro-2′-deoxyuridine (Sigma-Aldrich, F0503) to prevent progeny production. The number of living and dead C. elegans was recorded every 1 or 2 days. Worms that burst, were buried or crawled out of the plate were also counted. Survival data were analyzed using OASIS2 (Survival Analysis Online Application for Lifespan Analysis http://sbi.postech.ac.kr/oasis/surv/).

[6] = 6-OHDA+fexofenadine group, 18 days after 6-OHDA injection
[7] = normal mice (PBS-fexofenadine group)
[8] = C. elegans wild-type N2 treated with fexofenadine

`CC(C)(C(=O)O)c1ccc(C(O)CCCN2CCC(C(O)(c3ccccc3)c3ccccc3)CC2)cc1` (stereo not shown) [fexofenadine] was tested. Which acrossing time [1, 6] did it give?
Its acrossing time is “restored to a level similar to that of the normal mouse control group”.

What about the acrossing time [1, 7] of the same molecule?
The acrossing time was “improved compared to the normal mouse control group”.

And the landing time [2, 6]?
Its landing time is “about 6 seconds”.

What about the landing time [2, 7] of the same molecule?
The landing time was “approximately 4.5 seconds”.

What about the “motor ability (steps of forepaw opposite the damaged striatum vs undamaged)” value [3] of the same molecule?
The value was “restored to the level of the normal mouse control group”.

And the “number of TH-positive neurons on the ipsilateral side of the substantia nigra” value (TH-positive neurons)?
The value was “recovered to a level similar to that of the normal mouse control group”.

What about the “number of Iba-1 positive microglia in the ipsilateral side of the striatum and substantia nigra” value (Iba-1 positive microglia) of the same molecule?
Its value is “reduced to a level similar to that of the normal mouse control group”.

And the “GFAP expression in the cortex, striatum and substantia nigra, ipsilateral and contralateral sides” value (GFAP)?
The value was “significantly reduced”.

And the Venus fluorescence intensity (α-synuclein aggregates)?
Its Venus fluorescence intensity is “significantly reduced”.

And the pharyngeal pumping ability ([4]; C. elegans Parkinson's disease model, 8 days after fexofenadine treatment)?
The pharyngeal pumping ability was “restored to a level similar to that of wild-type N2”.

And the pharyngeal pumping ability [4, 8]?
The pharyngeal pumping ability was “improves the pharyngeal pumping ability”.

And the lifespan [5, 8]?
The lifespan was “further extended”.

What about the lifespan ([5]; fexofenadine-treated C. elegans Parkinson's disease model) of the same molecule?
The lifespan was “about 14 days”.
